In ChEMBL document CHEMBL1127546, “New thiol inhibitors of neutral endopeptidase EC 3.4.24.11: synthesis and enzyme active-site recognition” (J Med Chem, 1994) one finds Ki and IC50 data, which are given here for 20 molecules.

For experiment [1], the target named is T1, Neprilysin (Oryctolagus cuniculus, UniProt P08049).
T1 sequence (P08049 whole entry): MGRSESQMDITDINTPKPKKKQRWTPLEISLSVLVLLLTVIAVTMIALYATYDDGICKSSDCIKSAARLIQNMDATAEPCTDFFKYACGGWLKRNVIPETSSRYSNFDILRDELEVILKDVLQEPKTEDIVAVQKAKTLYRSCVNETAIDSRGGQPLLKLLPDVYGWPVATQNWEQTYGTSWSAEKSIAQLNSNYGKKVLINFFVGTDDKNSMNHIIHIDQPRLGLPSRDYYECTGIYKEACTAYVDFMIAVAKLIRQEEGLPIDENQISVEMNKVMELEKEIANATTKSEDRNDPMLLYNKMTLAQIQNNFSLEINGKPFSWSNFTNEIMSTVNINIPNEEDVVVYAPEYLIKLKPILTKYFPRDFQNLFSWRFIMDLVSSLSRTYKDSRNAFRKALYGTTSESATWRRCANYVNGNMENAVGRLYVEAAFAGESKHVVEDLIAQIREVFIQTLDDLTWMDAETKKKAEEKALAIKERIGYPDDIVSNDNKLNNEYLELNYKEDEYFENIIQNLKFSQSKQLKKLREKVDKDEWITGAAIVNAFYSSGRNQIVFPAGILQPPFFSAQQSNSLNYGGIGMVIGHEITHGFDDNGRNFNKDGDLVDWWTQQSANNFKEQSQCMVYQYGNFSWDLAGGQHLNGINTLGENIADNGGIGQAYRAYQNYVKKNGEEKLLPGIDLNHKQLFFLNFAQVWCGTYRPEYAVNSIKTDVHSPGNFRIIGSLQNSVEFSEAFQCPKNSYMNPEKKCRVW
Description: Tested for binding affinity against neutral endopeptidase (NEP).

The target in experiment [2] is T1, Neprilysin. Put plainly: Tested for inhibitory potency against neutral endopeptidase (NEP).
Experiment [3] concerns the target T2, Angiotensin-converting enzyme (Homo sapiens, UniProt P12821). Put plainly: Tested for inhibitory potency against Angiotensin I converting enzyme.
Experiment [4] addresses T2, Angiotensin-converting enzyme. Put plainly: Tested for inhibitory potency against Angiotensin I Converting Enzyme.
The target in experiment [5] is T3, Thermolysin (Bacillus thermoproteolyticus, UniProt P00800).
T3 sequence (P00800 whole entry): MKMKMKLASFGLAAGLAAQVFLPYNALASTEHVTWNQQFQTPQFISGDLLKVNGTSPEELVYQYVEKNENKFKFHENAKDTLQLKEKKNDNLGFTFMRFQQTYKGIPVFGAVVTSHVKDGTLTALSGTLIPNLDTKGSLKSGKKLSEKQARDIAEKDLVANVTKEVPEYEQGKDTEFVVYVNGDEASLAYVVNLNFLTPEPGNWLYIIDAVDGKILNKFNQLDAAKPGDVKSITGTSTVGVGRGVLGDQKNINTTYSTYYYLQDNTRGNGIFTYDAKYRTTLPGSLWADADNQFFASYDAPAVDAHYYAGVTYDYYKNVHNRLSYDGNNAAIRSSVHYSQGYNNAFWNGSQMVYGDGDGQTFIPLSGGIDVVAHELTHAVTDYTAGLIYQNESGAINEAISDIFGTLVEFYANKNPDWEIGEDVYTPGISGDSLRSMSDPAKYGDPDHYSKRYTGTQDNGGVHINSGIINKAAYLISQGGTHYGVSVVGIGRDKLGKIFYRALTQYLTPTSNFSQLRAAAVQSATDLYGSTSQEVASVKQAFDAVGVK
Put plainly: Tested for binding affinity against Thermolysin. Further details: species or system Bacteria.

T2 sequence (P12821 whole entry): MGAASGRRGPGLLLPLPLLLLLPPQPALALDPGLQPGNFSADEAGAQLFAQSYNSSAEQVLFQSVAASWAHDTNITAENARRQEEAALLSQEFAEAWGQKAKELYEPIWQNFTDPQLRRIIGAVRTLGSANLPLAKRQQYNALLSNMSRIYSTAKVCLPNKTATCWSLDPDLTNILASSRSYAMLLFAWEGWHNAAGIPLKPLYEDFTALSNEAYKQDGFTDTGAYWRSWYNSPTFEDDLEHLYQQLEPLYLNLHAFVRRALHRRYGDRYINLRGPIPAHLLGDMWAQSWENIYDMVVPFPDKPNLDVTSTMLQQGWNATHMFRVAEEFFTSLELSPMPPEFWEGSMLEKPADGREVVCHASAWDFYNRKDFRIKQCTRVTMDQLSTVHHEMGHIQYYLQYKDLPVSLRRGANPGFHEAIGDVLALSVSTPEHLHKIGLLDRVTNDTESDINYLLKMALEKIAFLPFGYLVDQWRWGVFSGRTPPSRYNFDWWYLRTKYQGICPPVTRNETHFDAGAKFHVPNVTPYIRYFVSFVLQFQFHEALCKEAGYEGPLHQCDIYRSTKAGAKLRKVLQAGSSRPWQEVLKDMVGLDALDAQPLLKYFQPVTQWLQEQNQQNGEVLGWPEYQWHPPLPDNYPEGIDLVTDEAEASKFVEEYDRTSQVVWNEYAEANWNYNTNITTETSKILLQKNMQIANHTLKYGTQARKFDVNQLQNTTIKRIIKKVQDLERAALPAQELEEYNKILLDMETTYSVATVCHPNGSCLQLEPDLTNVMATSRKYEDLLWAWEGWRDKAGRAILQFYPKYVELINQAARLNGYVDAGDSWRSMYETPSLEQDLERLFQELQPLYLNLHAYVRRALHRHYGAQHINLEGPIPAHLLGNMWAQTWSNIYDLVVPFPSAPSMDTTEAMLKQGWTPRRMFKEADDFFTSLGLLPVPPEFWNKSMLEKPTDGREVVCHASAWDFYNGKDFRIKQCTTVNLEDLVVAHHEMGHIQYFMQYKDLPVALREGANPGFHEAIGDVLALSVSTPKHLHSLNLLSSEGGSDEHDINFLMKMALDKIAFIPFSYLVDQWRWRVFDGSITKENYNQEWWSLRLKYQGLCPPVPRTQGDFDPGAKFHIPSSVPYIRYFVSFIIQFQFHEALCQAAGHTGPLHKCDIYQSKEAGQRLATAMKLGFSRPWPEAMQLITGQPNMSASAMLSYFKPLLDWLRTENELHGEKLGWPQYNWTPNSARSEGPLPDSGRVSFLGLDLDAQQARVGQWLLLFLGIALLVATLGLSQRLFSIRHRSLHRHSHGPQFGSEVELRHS

As a reminder, the Ki is the equilibrium dissociation constant of an inhibitor or competing ligand from its target. High values mean lower affinity, low ones higher affinity. On to `O=C(O)C(CCc1ccccc1)N[C@@H](Cc1ccccc1)C(=O)NC[C@H](O)C(=O)O` (stereo partly specified), for which the affinity in experiment [1], expressed as Ki, was 11 nM. This lies in the double-digit nanomolar range. Usually IC50 stands for the midpoint of a concentration-inhibition curve. A low value points to higher potency. Regarding `CC(NC(=O)C(Cc1ccccc1)CC(S)Cc1ccccc1)C(=O)O` (stereo unspecified), the results for the IC50 in experiment [2] and in experiment [3] were 190 nM and 3800 nM, respectively. In the case of `O=C(NC(Cc1ccc(O)cc1)C(=O)O)C(Cc1ccccc1)CC(S)Cc1ccccc1` (stereo unspecified), the IC50 in experiment [2] is 150 nM; in experiment [4], 2400 nM.

In turn, `CC(C)C[C@H](NC(CCc1ccccc1)C(=O)O)C(=O)N[C@@H](Cc1c[nH]c2ccccc12)C(=O)O` (stereo partly specified) registered a Ki in experiment [5] of 50 nM.

For the molecule `O=C(O)CCNC(=O)C(Cc1ccccc1)CC(Cc1ccccc1)C(=O)O` (stereo unspecified), in experiment [2], 18 nM corresponded to half-maximal inhibition (IC50). As to `CCC(C)C(CC(S)Cc1ccccc1)C(=O)O` (stereo unspecified), the values for the IC50 in experiment [2] and in experiment [4] were 250 nM and 4000 nM, respectively. For `CCC(C)C(S)CC(C(=O)NC(Cc1ccc(O)cc1)C(N)=O)C(C)CC` (stereo unspecified), the IC50 came out at 360 nM in experiment [2] and 4000 nM in experiment [4].

`CCC(C)C(S)CC(C(=O)NC(Cc1ccc(O)cc1)C(=O)O)C(C)CC` (stereo unspecified): the IC50 in experiment [2] is 380 nM; in experiment [4], 3400 nM. Consider `O=C(O)C1CCCN1C(=O)C(Cc1ccccc1)CC(S)Cc1ccccc1` (stereo unspecified), for which the 50% inhibitory concentration (IC50) in experiment [2] was determined as 320 nM; in experiment [4], 3600 nM. The like results for `O=C(O)CCNC(=O)C(Cc1ccccc1)CC(S)Cc1ccccc1` (stereo unspecified) were, in that order, 290 nM and 3500 nM. Regarding `CCC(C)C(S)CC(Cc1ccccc1)C(=O)NC(Cc1ccc(O)cc1)C(N)=O` (stereo unspecified), the IC50 stood at 350 nM in experiment [2] and 3500 nM in experiment [4]. Take `CCC(C)C(CC(S)CCc1ccccc1)C(=O)NC(Cc1ccc(O)cc1)C(=O)O` (stereo unspecified): the IC50 in experiment [2] came out at 260 nM; in experiment [4], 2900 nM.

Regarding `CC(NC(=O)C(Cc1ccccc1)CC(S)c1ccccc1)C(=O)O` (stereo unspecified), the concentration for half-maximal inhibition (IC50) in experiment [2] was 130 nM; in experiment [4], 3500 nM.

Turning to `CCC(C)C1CC(Cc2ccccc2)SC1=O` (stereo unspecified), the half-inhibitory concentration (IC50) was 220 nM in experiment [2] and 2300 nM in experiment [4]. As for `CC(C)CC(S)C(Cc1ccccc1)C(=O)NC(C)C(=O)O` (stereo unspecified), the concentration for half-maximal inhibition (IC50) was determined as 4000 nM in experiment [5] and 3.6 nM in experiment [2].

Regarding `CCC(C)C(S)CC(Cc1ccccc1)C(=O)N[C@H](Cc1ccc(O)cc1)C(=O)O` (stereo partly specified), the IC50 in experiment [2] amounted to 320 nM; in experiment [4], 8000 nM.

On to `CCC(C)C(CC(S)Cc1ccccc1)C(=O)NC(Cc1ccc(O)cc1)C(=O)O` (stereo unspecified), for which the values for the IC50 in experiment [2] and in experiment [4] were 220 nM and 800 nM, respectively. For `CCC(C)C(CC(S)Cc1ccccc1)C(=O)N1CCCC1C(=O)O` (stereo unspecified), in that order: 350 nM and 2800 nM. Consider `CCC(C)C(S)CC(Cc1ccccc1)C(=O)N[C@@H](Cc1ccc(O)cc1)C(=O)O` (stereo partly specified), for which the half-inhibitory concentration (IC50) in experiment [2] was determined as 270 nM; in experiment [4] it was 4400 nM. In experiment [5], `O=C(O)CNC(=O)[C@@H](CS)Cc1ccccc1` [THIORPHAN] gave an IC50 of 1800 nM.
